Earlier results, collected in article PMC9337769 (Science Advances, 2022).

Key:
[1] = tested on: PKA-C; settings: substrate binding cooperativity of ligand-bound PKA-C
[2] = molecular target: PKA-C; settings: inhibition of PKA-C; literature value

| SMILES | K-type cooperativity (in words) [1] | Ki [2] [nM] |
| --- | --- | --- |
| O=S(=O)(NCCNCC=Cc1ccc(Br)cc1)c1cccc2cnccc12 [H89, N-[2-(p-bromocinnamylamino)ethyl]-5-isoquinoline sulfonamide] | negative K-type cooperativity |  |
| O=C(N[C@@H]1CNCCC[C@H]1OC(=O)c1cc(O)c(C(=O)c2c(O)cccc2C(=O)O)c(O)c1)c1ccc(O)cc1 [balanol] |  | ~4 |
| Nc1ncnc2c1ncn2[C@@H]1O[C@H](COP(=O)(O)OP(=O)(O)CP(=O)(O)O)[C@@H](O)[C@H]1O [adenosine 5′-(β,γ-methylene) triphosphate] | lacks K-type cooperativity |  |
